Experimental data from patent US20060128634A1, “Alpha, alpha-disubstituted benzylglycine derivatives as HIV protease inhibitors” (priority 2002, published 2006).
In brackets after ≈: the same amount, converted by molar mass.

System: HIV-1 (RF)
Assay: HIV RNA assay: microplate based compound evaluation in HIV-1 infected MT-2 cells
Type: cell-based
Conditions: Human immunodeficiency virus 1, MT2; HIV-1 (RF) infected MT-2 cells; value used to standardize the virus inoculum; read-out: IC90 (concentration of compound required to reduce the HIV RNA level by 90%)
Method: Plasmid pDAB 72 containing both gag and pol sequences of BH10 (bp 113-1816) cloned into PTZ 19R was prepared according to Erickson-Vitanen et al. AIDS Research and Human Retroviruses 1989, 5, 577. The plasmid was linearized with Bam HI prior to the generation of in vitro RNA transcripts using the Riboprobe Gemini system II kit (Promega) with T7 RNA polymerase. Synthesized RNA was purified by treatment with RNase free DNAse (Promega), phenol-chloroform extraction, and ethanol precipitation. RNA transcripts were dissolved in water, and stored at −70EC. The concentration of RNA was determined from the A260.
Biotinylated capture probes were purified by HPLC after synthesis on an Applied Biosystems (Foster city, Calif.) DNA synthesizer by addition of biotin to the 5N terminal end of the oligonucleotide, using the biotin-phosphoramidite reagent of Cocuzza, Tet. Lett. 1989, 30, 6287. […]
MT-2 and MT-4 cells were maintained in RPMI 1640 supplemented with 5% fetal calf serum (FCS) for MT-2 cells or 10% FCS for MT-4 cells, 2 mM L-glutamine and 50 μg/mL gentamycin, all from Gibco. […] Infectious titers of HIV-1(RF) stocks were 1-3×10^7 PFU (plaque forming units)/mL as measured by plaque assay on MT-2 cells (see below). […]

- IC90: 0.2 µg/mL (≈ 0.947 µM)
Structure (SMILES): Nc1ccn([C@H]2CC[C@@H](CO)O2)c(=O)n1 [ddC, dideoxycytidine]
